PubChem BioAssay (NCI)
“And” between values parts separate entries of the source, which are not always exact repeats. Identical values can stand only once.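 Five concentrations, 48 hours, 96-well plates. GI50 = concentration required for 50% inhibition of growth. Definition used: TGI = concentration required for complete inhibition of growth.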

Experiments:
Test in all cases: NCI-60 cell line screen, 48 h
786-0 renal = system: 786-0 renal
SF-268 CNS = system: SF-268 CNS
NCI-H23 lung = system: NCI-H23 lung
ACHN renal = system: ACHN renal
SK-OV-3 ovarian = system: SK-OV-3 ovarian
HS 578T breast = system: HS 578T breast
HCT-116 colon = system: HCT-116 colon
A549 NSCLC = system: A549 NSCLC
EKVX NSCLC = system: EKVX NSCLC
MALME-3M melanoma = system: MALME-3M melanoma

SMILES	TGI (786-0 renal)	TGI (SF-268 CNS)	TGI (NCI-H23 lung)	TGI (ACHN renal)	TGI (SK-OV-3 ovarian)	TGI (HS 578T breast) [µM]	TGI (HCT-116 colon)	TGI (A549 NSCLC) [µM]	TGI (EKVX NSCLC)	TGI (MALME-3M melanoma)	GI50 (SF-268 CNS) [µM]	GI50 (NCI-H23 lung) [µM]	GI50 (ACHN renal) [µM]	GI50 (SK-OV-3 ovarian) [µM]	GI50 (HCT-116 colon) [µM]	GI50 (A549 NSCLC) [µM]	GI50 (EKVX NSCLC) [µM]	GI50 (MALME-3M melanoma) [µM]
O=C(O)CCSc1ncnc2nc[nH]c12	> 100 µM	> 100 µM	> 100 µM	> 100 µM	> 100 µM	> 100	> 100 µM	> 100	> 100 µM	> 100 µM	–	–	–	–	–	–	–	–
C=CCN(c1cc(OC)c2[nH]c(C(=O)O)c(C)c2c1[N+](=O)[O-])S(C)(=O)=O	> 100 µM	> 100 µM	> 100 µM	> 100 µM	> 100 µM	> 100	> 100 µM	> 100	> 100 µM	52.3 µM	–	–	–	–	–	–	–	–
O=C(CCl)Nc1ccc(C(=O)N/N=C/c2ccc(Cl)cc2)cc1	3.09 µM and 3.12 µM	3.88 µM and 6.85 µM	3.19 µM and 6.87 µM	6.57 µM and 9.22 µM	8.02 µM and 24.7 µM	6.7	3.18 µM and 3.7 µM	15.2	4.02 µM and 38.5 µM	3.63 µM and 14.2 µM	1.81	1.62	2.92	12.3	1.57	3.96	20	3.79
CC(=O)Nc1ccc2c(c1)nc1c3ccccc3ccn21	> 100 µM	> 100 µM	> 100 µM	> 100 µM	> 100 µM	> 100	> 100 µM	> 100	> 100 µM	> 100 µM	–	–	–	–	–	–	–	–
CC(C)(C)C#CI1OC(=O)c2ccccc21	11.5 µM	14.3 µM	15.3 µM	8.42 µM	25.1 µM	> 92.3	6.82 µM	31.9	17.5 µM	9.24 µM	–	–	–	–	–	–	–	–
O=C1CCCC2=C1CC1=C(CCCC1=O)N2c1ccc(-c2ccccc2)cc1	> 100 µM	> 100 µM	> 100 µM	> 100 µM	> 100 µM	> 100	> 100 µM	> 100	> 100 µM	> 100 µM	–	–	–	–	–	–	–	–
COc1ccc(CCn2ccc(=O)c(O)c2C)cc1OC	22.3 µM	9.92 µM	> 100 µM	> 100 µM	> 100 µM	0.0907	> 100 µM	> 100	> 100 µM	91 µM	–	–	–	–	–	–	–	–
Brc1ccc2[nH]cc(-c3csc(-c4c[nH]c5ccc(Br)cc45)n3)c2c1	3.49 µM	6.12 µM	6.34 µM	4.8 µM	8.09 µM	> 20.8	3.26 µM	7	3.93 µM	3.99 µM	–	–	–	–	–	–	–	–
Cc1cccc2c(N)c3cccc(C(=O)NCC[N+](C)(C)[O-])c3nc12	> 100 µM	> 100 µM	16.7 µM	77.9 µM	64.6 µM	38.9	> 100 µM	> 100	87.4 µM	52.5 µM	–	–	–	–	–	–	–	–
CN(C)CN1C(=O)/C(=N\n2c(-c3ccncc3)n[nH]c2=S)c2ccccc21	41.6 µM	> 100 µM	> 100 µM	> 100 µM	> 100 µM	> 100	> 100 µM	> 100	> 100 µM	> 100 µM	–	–	–	–	–	–	–	–
COC(=O)[C@@H]1[C@H]2CC[C@]3(C)[C@@H](OC(C)=O)CC[C@H]3[C@@H]2CC[C@H]1C1(C)SCCS1	62.5 µM	> 100 µM	86.7 µM	> 100 µM	> 100 µM	74.4	46.3 µM	74.5	74.4 µM	38.9 µM	–	–	–	–	–	–	–	–
O=C1c2cccnc2C(=O)c2c1nc1ccccc1c2-c1ccc2c3c(nc4ccccc42)C(=O)c2cccnc2-c13	1.91 µM	6.46 µM	2.67 µM	4.1 µM	18.5 µM	11.1	1.73 µM	6.86	6.69 µM	4.54 µM	–	–	–	–	–	–	–	–
